Patent US4372877A, “Di(acylperoxy)-1,4-cyclohexane dimethanol-bis-carbonates” (priority 1981, dated 1983)

What was measured:
[1] = disclosed in prior art U.S. patents; cited from earlier work
[2] = Vinyl chloride suspension polymerization (% conversion)
Procedure: As mentioned, the instant bis-carbonates are useful for the initiation of monomers having polymerizable ethylenic or vinyl unsaturation, such as ethylene, styrene, methyl methacrylate and vinyl chloride and copolymers thereof. The data was generated with suspension polymerization performed in 12 ounce pop bottles using uninhibited monomer. Duplicate bottles were analyzed at each time interval for which data is listed. Bottles were frozen before venting off of excess monomer. Mixing speed of the pop bottles was 42 rpm. The water to vinyl chloride monomer ratio was 2.50. Each pop bottle contained 0.35 gms Dow Methocel 90 HG, 100 cps suspension agent per 100 gms vinyl chloride monomer.

[3] = Hot Block Gel Tests With Polyester Resin; details: block 180 °F, 1% wt peroxide (100% purity basis)
Source text: As mentioned above, the new molecules can be used for curing of polyester resins and this utility is illustrated in Tables V and VI below. Typical prior art peroxy dicarbonates and carbonates of the prior art are included for comparison.
Hot Block Gel Tests With Polyester Resin
Resin: MR 941 (U.S.S. Chemical - orthophthalic)
Concentrations of peroxide adjusted to 100% purity basis, 1% wt

[4] = Ten-hour half-life temperature (0.1 M in benzene); format: physicochemical
Source text: Table I provides the ten-hour half-life of the compounds of the instant invention synthesized in Examples 1-3.
Peroxide (0.1 M in benzene)

[5] = Storage stability at 40 °C; format: physicochemical; design: A.O.: unit not given here
Procedure: APCD from Example 1 is selected as representative and was tested over a period of 89 days at 40° C. Representative peroxy carbonate and dicarbonates of the prior art are also included for comparison.
Storage Stability at 40° C.

[6] = 55 °C, 5.5 Hrs., 2.01 × 10^-4 moles/100g VCM (APCD 0.070, LPCD 0.126, BPCD 0.095 % wt)
[7] = 55 °C, 5.5 Hrs., 2.30 × 10^-4 moles/100g VCM (APCD 0.080, LPCD 0.145, BPCD 0.109 % wt)
[8] = 60 °C, 5.0 Hrs., 1.15 × 10^-4 moles/100g VCM (APCD 0.040, LPCD 0.072, BPCD 0.054 % wt)
[9] = 60 °C, 5.0 Hrs., 1.45 × 10^-4 moles/100g VCM (APCD 0.051, LPCD 0.091 % wt)

Row | SMILES | Exotherm Time ([3]; Table V) | Gel Time ([3]; Table V) | Exotherm Time ([3]; Table VI) | Gel Time ([3]; Table VI) | Ten-Hour Half-Life Temperature [4] | % Purity ([5]; 0 days elapsed) | A.O. ([5]; 0 days elapsed) | % Purity ([5]; 7 days elapsed) | A.O. ([5]; 7 days elapsed) | % Purity ([5]; 14 days elapsed) | A.O. ([5]; 14 days elapsed) | % Purity ([5]; 28 days elapsed) | A.O. ([5]; 28 days elapsed) | % Purity ([5]; 59 days elapsed) | A.O. ([5]; 59 days elapsed) | % Purity ([5]; 89 days elapsed) | A.O. ([5]; 89 days elapsed) | other results
1 | CC(C)(COC(=O)OOC(=O)OCC(C)(C)c1ccccc1)c1ccccc1 [di(2-methyl-2-phenylpropyl) peroxy dicarbonate] |  |  |  |  |  |  |  |  |  |  |  |  |  |  |  |  |  | stability at room/ambient temperature [1]: ambient temperature stability
2 | O=C(OOC(=O)OC1CCCCCCCCCCC1)OC1CCCCCCCCCCC1 [dicyclododecyl peroxy dicarbonate] |  |  |  |  |  |  |  |  |  |  |  |  |  |  |  |  |  | stability at room/ambient temperature [1]: stability that permits storage at room temperature
3 | CC(=O)OOC(=O)OCC1CCC(COC(=O)OOC(C)=O)CC1 (stereo not drawn) [APCD, di(acetylperoxy)-1,4-cyclohexane dimethanol bis-carbonate] | 4.05 min | 3.38 min | 4.20 min | 3.58 min | 55.2 °C | 99.6% | 9.15 | 99.5% | 9.14 | 98.3% | 9.03 | 97.7% | 8.98 | 95.4% | 8.77 | 93.4% | 8.58 | % Conversion ([2]; 55 °C, 1.5 Hrs., 2.23 × 10^-4 moles/100g VCM (APCD 0.0775 % wt)): 13.6%; % Conversion ([2]; 55 °C, 3.5 Hrs., 2.23 × 10^-4 moles/100g VCM (APCD 0.0775 % wt)): 42.0%; % Conversion ([2]; 55 °C, 5.5 Hrs., 0.85 × 10^-4 moles/100g VCM (APCD 0.030 % wt)): 35.7%; % Conversion ([2]; 55 °C, 5.5 Hrs., 1.15 × 10^-4 moles/100g VCM (APCD 0.040 % wt)): 45.6%; % Conversion ([2]; 55 °C, 5.5 Hrs., 1.45 × 10^-4 moles/100g VCM (APCD 0.051 % wt)): 55.7%; % Conversion ([2]; 55 °C, 5.5 Hrs., 1.72 × 10^-4 moles/100g VCM (APCD 0.060, BPCD 0.081 % wt)): 60.5%; % Conversion [2, 6]: 71.5%; % Conversion ([2]; 55 °C, 5.5 Hrs., 2.23 × 10^-4 moles/100g VCM (APCD 0.0775 % wt)): 80.3%; % Conversion [2, 7]: 83.0%; % Conversion ([2]; 60 °C, 1.5 Hrs., 1.36 × 10^-4 moles/100g VCM (APCD 0.0475 % wt)): 15.1%; % Conversion ([2]; 60 °C, 3.5 Hrs., 1.36 × 10^-4 moles/100g VCM (APCD 0.0475 % wt)): 46.9%; % Conversion ([2]; 60 °C, 5.0 Hrs., 0.85 × 10^-4 moles/100g VCM (APCD 0.030, BPCD 0.040 % wt)): 48.5%; % Conversion [2, 8]: 65.9%; % Conversion ([2]; 60 °C, 5.0 Hrs., 1.36 × 10^-4 moles/100g VCM (APCD 0.0475 % wt)): 83.1%; % Conversion [2, 9]: 86.6%
4 | O=C(OCCOc1ccccc1)OOC(=O)OCCOc1ccccc1 [di(phenoxyethyl) peroxydicarbonate] | 5.62 min | 5.45 min |  |  | 42.2 °C | 97.4% | 4.31 | 94.4% | 4.17 | 93.3% | 4.12 | 91.1% | 4.03 | 84.7% | 3.74 | 73.1% | 3.23 | 
5 | CCCCCCCCCCCC(=O)OOC(=O)OCC1CCC(COC(=O)OOC(=O)CCCCCCCCCCC)CC1 (stereo not drawn) [LPCD, di(lauroylperoxy)-1,4-cyclohexane dimethanol bis-carbonate] |  |  | 4.96 min | 4.05 min | 51.4 °C |  |  |  |  |  |  |  |  |  |  |  |  | % Conversion [2, 6]: 60.9%; % Conversion [2, 7]: 72.0%; % Conversion [2, 8]: 51.4%; % Conversion [2, 9]: 65.4%
6 | CC(C)(C)C1CCC(OC(=O)OOC(=O)OC2CCC(C(C)(C)C)CC2)CC1 (stereo not drawn) [Di(4-t-butylcyclohexyl) peroxydicarbonate] | 3.39 min | 2.46 min | 3.58 min | 2.74 min | 43.0 °C | 97.8% | 3.92 | 96.4% | 3.86 | 96.4% | 3.86 | 95.2% | 3.82 | 93.0% | 3.73 | 93.2% | 3.74 | 
7 | CCCCCCCCCCCCCCCCCCOC(=O)OOC(C)=O [acetyl peroxystearyl carbonate] | 4.05 min | 3.13 min |  |  |  | 94.1% | 4.04 | 93.5% | 4.01 | 93.1% | 4.00 | 91.5% | 3.92 | 87.9% | 3.77 | 78.8% | 3.38 | 
